Where two headings read alike, the source gives them in different places.

Test [1] concerns the target T1, androgen receptor (Homo sapiens, UniProt P10275, T878A).
T1 construct: host or cells: LNCaP.FGC
As to the kind of experiment: Androgen receptor degradation assay using Western blot analysis. The class given is cell-based. In a few lines: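 LNCaP.FGC cells (2×10^5/well) treated with 10-fold serial dilutions in RPMI from 100 nM stock; untreated cells as negative control. AR Western signal normalized to GAPDH, expressed as % remaining versus untreated (100%). DC50 derived from calibration curve of serial dilutions.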
In general terms: Immunoblotting shows a protein as a band on a membrane.

For test [2], the system named is Androgenetic Alopecia (AGA) Mice Model. As to the kind of experiment: In vivo hair regrowth efficacy in androgenetic alopecia (AGA) mice model. The note with it: DHT pre-treated male C57BL/6 mice, topical 3.5 μg/cm2/day once daily, day 20; DHT+vehicle group 3.5. As to the method: Seven-week old male C57BL/6 mice (with black fur) purchased from BioLASCO Taiwan Co., Ltd. were grouped 6 to 8 mice per cage, and intraperitoneally administered with dihydrotestosterone (DHT) (1 mg/day, dissolved in corn oil) or corn oil alone once daily for four days. DHT is an agonist to androgen receptors, which can be used to induce symptoms of androgenetic alopecia.
Four days later, the dorsal region of the mice was depilated with hair removal cream (Nair Sensitive Hair Removal Cream, 100 mg to 200 mg per mouse). After hair removal, the skin color was recorded by photographs with a resolution of 4032*3024 pixel (day 1, D1). On the next day (D2), the test solutions of the compound 29 and compound 33 in a vehicle were prepared (3.5 μg/cm^2/day), and each test solution or vehicle alone was topically administered on the depilated region once daily for 20 days. The hair removal cream, the test solution and the vehicle were separately rubbed into the dorsal region of mice. The photographs underwent analysis using a self-developed software that utilized auto-image segmentation, primarily focusing on the border of the depilation area. This segmentation process involved classifying different regions within the images. […] The hair regrowth efficacy could be evaluated by the photographs and/or the skin color score.

Where [3] appears, read: 24 h, read-out: Androgen Receptor Remaining (%), LNCaP.FGC cells, 100 nM, 24 hr, normalized to GAPDH, untreated cells = 100%.
The mark [4] stands for this setting: read-out: AR DC50 (concentration needed for 50% AR degradation); LNCaP.FGC cells, serial 10x dilutions from 100 nM.

T1 sequence (P10275 whole entry T878A): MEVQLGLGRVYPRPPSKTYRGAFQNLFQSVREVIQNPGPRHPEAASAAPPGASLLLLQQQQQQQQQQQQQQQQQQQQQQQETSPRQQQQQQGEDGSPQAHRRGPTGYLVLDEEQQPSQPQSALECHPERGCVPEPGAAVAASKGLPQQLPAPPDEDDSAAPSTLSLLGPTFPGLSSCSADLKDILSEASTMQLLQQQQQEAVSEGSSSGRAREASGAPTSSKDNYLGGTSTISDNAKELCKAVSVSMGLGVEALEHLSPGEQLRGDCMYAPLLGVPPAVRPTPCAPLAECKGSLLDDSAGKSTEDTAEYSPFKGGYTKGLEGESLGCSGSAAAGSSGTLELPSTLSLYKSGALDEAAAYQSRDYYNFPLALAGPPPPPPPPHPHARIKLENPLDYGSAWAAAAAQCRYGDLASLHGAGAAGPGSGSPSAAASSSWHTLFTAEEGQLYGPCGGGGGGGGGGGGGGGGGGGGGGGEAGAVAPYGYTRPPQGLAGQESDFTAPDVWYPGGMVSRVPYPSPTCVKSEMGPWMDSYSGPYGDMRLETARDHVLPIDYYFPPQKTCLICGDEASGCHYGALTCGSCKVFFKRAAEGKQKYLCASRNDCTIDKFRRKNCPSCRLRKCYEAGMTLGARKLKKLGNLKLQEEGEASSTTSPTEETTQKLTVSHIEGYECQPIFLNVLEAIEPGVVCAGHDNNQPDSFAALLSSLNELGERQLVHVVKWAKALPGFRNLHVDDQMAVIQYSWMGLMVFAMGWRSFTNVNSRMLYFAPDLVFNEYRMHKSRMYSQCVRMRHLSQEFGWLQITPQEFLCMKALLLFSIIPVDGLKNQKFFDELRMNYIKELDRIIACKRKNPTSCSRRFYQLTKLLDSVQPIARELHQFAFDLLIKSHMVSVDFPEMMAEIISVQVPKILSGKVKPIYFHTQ
T1 sequence (Q96SW2 whole entry partner): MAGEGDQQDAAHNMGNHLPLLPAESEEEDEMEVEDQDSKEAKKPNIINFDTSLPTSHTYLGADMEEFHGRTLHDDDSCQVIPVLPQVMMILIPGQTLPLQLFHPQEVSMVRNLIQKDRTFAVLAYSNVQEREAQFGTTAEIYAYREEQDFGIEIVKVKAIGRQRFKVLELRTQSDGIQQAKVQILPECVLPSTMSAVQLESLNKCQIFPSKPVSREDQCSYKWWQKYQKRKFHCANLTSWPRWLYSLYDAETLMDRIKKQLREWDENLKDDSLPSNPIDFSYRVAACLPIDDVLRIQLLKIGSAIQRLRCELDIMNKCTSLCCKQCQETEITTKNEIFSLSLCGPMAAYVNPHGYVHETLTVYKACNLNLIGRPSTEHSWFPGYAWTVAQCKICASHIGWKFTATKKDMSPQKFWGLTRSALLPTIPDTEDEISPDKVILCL

Consider `CCn1c2c(c3ccc(OCCN4CCN(c5ccc(C(=O)N[C@H]6CC[C@H](Oc7ccc(C#N)c(Cl)c7)CC6)nn5)CC4)cc31)C(=O)N(C1CCC(=O)NC1=O)C2=O` (some centres unmarked) [Compound 33], for which the remaining activity at 0.1 µM in test [1] (setting [3]) was determined as 27%. Besides, the DC50 in test [1] (setting [4]) fell in the range of 10 to 25 nM. Further, in test [2], the “average skin color score (1 = depilated skin, 8 = fully regrown hair)” value turned out to be 6.5.
Consider `CCn1c2c(c3ccc(OCCCN4CCN(c5ccc(C(=O)N[C@H]6CC[C@H](Oc7ccc(C#N)c(Cl)c7)CC6)nn5)CC4)cc31)C(=O)N(C1CCC(=O)NC1=O)C2=O` (some centres unmarked) [Compound 29], for which the remaining activity at 0.1 µM in test [1] (setting [3]) was found to be 31%. The DC50 in test [1] (setting [4]) was in the range of 10 to 25 nM. The “average skin color score (1 = depilated skin, 8 = fully regrown hair)” value in test [2] is reported as 8.
On to `CCn1c2c(c3ccc(OCCOCC4CCN(c5ccc(C(=O)N[C@H]6CC[C@H](Oc7ccc(C#N)c(Cl)c7)CC6)nn5)CC4)cc31)C(=O)N(C1CCC(=O)NC1=O)C2=O` (some centres unmarked) [Compound 138], for which the remaining activity at 0.1 µM in test [1] (setting [3]) came to 39%. In addition, in test [1] (setting [4]), the DC50 lay in the range of 25 to 100 nM.
Turning to `Cn1c2c(c3ccc(OCCCN4CCC5(CC4)CCN(c4ccc(C(=O)N[C@H]6CC[C@H](Oc7ccc(C#N)c(Cl)c7)CC6)nn4)CC5)cc31)C(=O)N(C1CCC(=O)NC1=O)C2=O` (some centres unmarked) [Compound 194], the DC50 in test [1] (LNCaP.FGC cells, serial 10x dilutions from 100 nM; read-out: AR DC50 (concentration needed for 50% AR degradation)) was in the range of 10 to 25 nM.
Consider `CCn1c2c(c3ccc(OCC(=O)N4CC5(CCN(c6ccc(C(=O)N[C@H]7CC[C@H](Oc8ccc(C#N)c(Cl)c8)CC7)nn6)CC5)C4)cc31)C(=O)N(C1CCC(=O)NC1=O)C2=O` (some centres unmarked) [Compound 127], for which the remaining activity at 0.1 µM in test [1] (setting [3]) was 58%.
Turning to `CC(COc1ccc2c3c(n(C)c2c1)C(=O)N(C1CCC(=O)NC1=O)C3=O)CN1CCN(c2ccc(C(=O)N[C@H]3CC[C@H](N(C)c4ccc(C#N)c(Cl)c4)CC3)nn2)CC1` (some centres unmarked) [Compound 189], in test [1] (setting [4]), the DC50 lay within 10 to 25 nM.

(Values after patent US20250197409A1, “BIFUNCTIONAL COMPOUND AND PHARMACEUTICAL COMPOSITION COMPRISING THE BIFUNCTIONAL COMPOUND, AND METHOD FOR TREATING ANDROGEN RECEPTOR RELATED DISEASE BY USING THE SAME” (ANHORN MEDICINES CO., LTD., priority 2022, published 2025).)
